Measured values: patent EP0195433A1, “Amide derivatives processes for preparing them and use thereof” (GREEN CROSS CORPORATION, priority 1985, dated 1986)

How the values were obtained:
granuloma pouch = experiment: Anti-inflammatory activity, granuloma pouch method; format: in vivo, SD male rats; settings: 25 mg/kg/day orally for 8 consecutive days, eight days after croton oil injection; for Weight of Pouch: wet weight
Protocol: Pouches were made under the dorsal skin of SD male rats (body weight: 150 - 180 g) by injecting 20 ml of N2 gas in accordance with the method described in E. Itoga and Y. Miyake; Oyo yakuri, 66, 316 (1970). The rats were subsequently injected with 1 ml of 1% croton oil dissolved in cottonseed oil. Eight days after injection, the wet weight of each pouch and the volume of exudate therefrom were measured. Each of the test compounds was administered orally for 8 consecutive days on a single-dose-a-day basis..

carrageenan paw edema = experiment: Anti-inflammatory activity, carrageenan paw edema method; format: in vivo, SD male rats; settings: 25 mg/kg, i.p., 30 minutes before carrageenan; four hours after injection
Protocol: SD male rats (body weight: 150 - 180 g) were starved overnight and 25 mg/kg of a selected test compound was administered intraperitoneally to each rat. Thirty minutes later, 0.1 ml of a 1.5% solution of carrageenan in physiological saline was injected under the skin of the paw of a hind leg. Four hours after injection, the volume of the treated leg was measured with a mercury manometer and compared with the value prior to carrageenan injection in order to calculate the percentages of edema and its inhibition. Each of the test compounds was administered in a concentration of 5 mg/ml as a suspension in 5% gum arabic in physiological saline.

[1] = test system: secretion of gastric juice; experiment: Inhibition of gastric juice secretion, pyloric ligation (method of Shay et al.); format: in vivo, Wistar male rats; settings: 25 mg/kg, i.p., 4 hours after pyloric ligation; for Total Peptic Activity: casein as substrate; for Total Acid Output: titration with 0.02N NaOH
Protocol: The activity of each of the test compounds in inhibiting the secretion of gastric juice was measured by pyloric ligation in accordance with the method of Shay et al. described in H. Shay, S.A. Komarov, S.S. Fels et al.; Gastroenterology, 5, 43 (1945). Groups each consisting of 8 - 10 Wistar male rats weighing 150 - 200 g which had been starved for 48 hours were subjected to abdominal incision under ether anesthetization. After pyloric ligation, the incised abdomen of each animal was closed and the animal was kept away from food and water for 4 hours. The test compound was suspended in 5% gum arabic (in physiological saline) to give a concentration of 5 mg/ml, and the suspension was administered intraperitoneally to each rat in a dose of 25 mg/kg immediately after the closure of the incised abdomen. Four hours later, each rat was sacrificed with chloroform and the stomach was extracted. The gastric juice contained in the stomach was withdrawn and checked for its volume, total acidity and total pepsin activity.
The total acidity was determined by titration with 0.02N NaOH using phenolphthalein as an indicator. The total pepsin activity was determined in accordance with the method of Anson; Brit. J. Pharmacol., 13, 54 (1958) using casein as a substrate.

Acetic acid ulcers = experiment: Acetic acid ulcer; format: in vivo, Wistar male rats; settings: 14 consecutive days
Protocol: .Acetic acid ulcers were induced in Wistar male rats in accordance with the method described in K. Takagi, S. Okabe et al.,; Jpn. J. Pharmacol., 19, 418 (1969).
Starting on the day of operation, each of the test compounds was administered orally to each rat for 14 consecutive days on a two-dose-a-day basis. The rats were starved for 24 hours after administration of the final dose. They then were sacrificed with chloroform and the stomach was extracted from each animal and fixed in formalin. The product of the length and breadth of each […] was determined and used as an ulcer index.

Aspirin ulcers = experiment: Aspirin ulcer; format: in vivo, Wistar male rats; settings: 20 mg/kg intraperitoneally, 7 hours; for Ulcer index: aspirin 150 mg/kg orally, total length of ulcers
Protocol: Aspirin ulcers were produced in Wistar male rats (body weight: 150 - 200 g) in accordance with the method described in S. Okabe, K. Takeuchi et al.; Jpn. J. Pharmacol., 24, 363 (1974).
The rats were starved for 24 hours and subjected to pyloric ligation. Immediately thereafter, 150 mg/kg of aspirin suspended in 5% gum arabic was administrered orally to each rat which was simultaneously injected with a selected test compound (20 mg/kg) intraperitoneally.
The rats were kept away from food and water for 7 hours. Thereafter, the stomach was extracted from each animal under ether anesthetization and fixed in formalin. The total length of the ulcers occurring in the glands of the extracted stomach was measured and used as an ulcer index.

HCl-ethanol ulcers = experiment: HCl-ethanol ulcer; format: in vivo, Wistar male rats; settings: for Percent inhibition: 20 mg/kg intraperitoneally; for Ulcer index: 20 mg/kg intraperitoneally 2 hours before 1.5 ml of 15 mM HCl in 60% ethanol orally, 1 hour
Protocol: HCl-ethanol ulcers were induced in Wistar male rats in accordance with the method described in S. Okabe, S. Ueki et al.; Oyo Yakuri, 27, 829 (1984).
The procedures of (2) were repeated except that 2 hours after the intraperitoneal injection of a selected test compound, 1.5 ml of 15 mM HC1 in 60% ethanol was administrered orally to each rat, which thereafter was kept for an additional 1 hour.

Stress ulcers = experiment: Stress ulcer (restraint and water immersion); format: in vivo, Wistar male rats; settings: 20 mg/kg intraperitoneally; for Ulcer index: restrained and immersed in water (22 ± 1°C) for 7 hours
Protocol: Stress ulcers were induced in Wistar male rats in accordance with the method described in K. Takagi and S. Okabe; Jpn. J. Pharmacol., 18, 9 (1968).
The procedures of (2) were repeated except that the rats were restrained immediately after the administration of a selected test compound and immersed in water (22 ± 1°C) for 7 hours.

In the case of CCCCCC=CC(=O)NCCSSCCNC(=O)C=CCCCCC [Compound 3, [SCH2CH2NH-COCH=CH(CH2)4CH3]2], the “Volume of Exudate” value (granuloma pouch) was 8.5 mL, the “Weight of Pouch” value (granuloma pouch) was 4.34 g and the Percent inhibitaion (carrageenan paw edema) was 29.7%. The Percentage of edema (carrageenan paw edema) was 36.3%.

CCCCCCCCC=CC(=O)O [2-Undecenoic acid, reference compound] was tested, and the “Gastric Volume” value [1] was 2.46 ml/100 g wt, the “Total Peptic Activity” value [1] was 159.8 mg as tyrosine/ 100 g wt and the “Total Acid Output” value [1] was 318.1 μ Eq/100 g wt.

CCCCCCCCCCC=CC(=O)NCCSCC(N)=O [Compound 8, NH2COCH2SCH2CH2NH-COCH=CH(CH2)9CH3] was tested, and the Percent inhibitaion (carrageenan paw edema) was 49.6% and the Percentage of edema (carrageenan paw edema) was 24.3%.

CCCCCCCCCCC=CC(=O)NCCSSCCNC(=O)C=CCCCCCCCCCC [Compound 7, [SCH2CH2NH-COCH=CH(CH2)9CH3]2] gave a Percent inhibitaion (carrageenan paw edema) of 30.7% and a Percentage of edema (carrageenan paw edema) of 33.4%.

With CCCCCCCC=CC(=O)NCCSCC(N)=O [Compound 6, NH2COCH2SCH2CH2NH-COCH=CH(CH2)6CH3] the Percent healing (Acetic acid ulcers; 100 x 2 mg/kg/day orally) was 21.0%, the Ulcer index (Acetic acid ulcers; 100 x 2 mg/kg/day orally) was 45.8 and the Percent healing (Acetic acid ulcers; 200 x 2 mg/kg/day orally) was 27.4%. The Ulcer index (Acetic acid ulcers; 200 x 2 mg/kg/day orally) was 42.1, the Percent healing (Acetic acid ulcers; 400 x 2 mg/kg/day orally) was 34.0% and the Ulcer index (Acetic acid ulcers; 400 x 2 mg/kg/day orally) was 38.3. For the same molecule, the Percent inhibition (Aspirin ulcers) was 49.7%, the Ulcer index (Aspirin ulcers) was 8.6 and the Percent inhibition (HCl-ethanol ulcers) was 69.7%. It also gave a Ulcer index (HCl-ethanol ulcers) of 12.5, a Percent inhibition (Stress ulcers) of 54.3% and a Ulcer index (Stress ulcers) of 13.3. The “Gastric Volume” value [1] was 0.93 ml/100 g wt, the “Total Peptic Activity” value [1] was 81.5 mg as tyrosine/ 100 g wt and the “Total Acid Output” value [1] was 91.1 μ Eq/100 g wt.

For CCCCCC=CC(=O)NCCSCC(N)=O [Compound 4, NH2COCH2SCH2CH2NH-COCH=CH(CH2)4CH3], the “Volume of Exudate” value (granuloma pouch) was 10.6 mL, the “Weight of Pouch” value (granuloma pouch) was 3.81 g and the Percent inhibitaion (carrageenan paw edema) was 45.2%. For the same molecule, the Percentage of edema (carrageenan paw edema) was 28.3%.

CCCCCCCCC=CC(=O)NCCSSCCNC(=O)C=CCCCCCCCC [Compound 1, [SCH2CH2NH-COCH=CH(CH2)7CH3]2] was tested, and the “Gastric Volume” value [1] was 2.10 ml/100 g wt, the “Total Peptic Activity” value [1] was 139.9 mg as tyrosine/ 100 g wt and the “Total Acid Output” value [1] was 229.2 μ Eq/100 g wt.

With CCCCCCCCC=CC(=O)NCCSCC(N)=O [Compound 2, NH2COCH2SCH2CH2NH-COCH=CH(CH2)7CH3] the Percent inhibition (Aspirin ulcers) was 76.4%, the Ulcer index (Aspirin ulcers) was 4.0 and the Percent inhibition (HCl-ethanol ulcers) was 70.5%. For the same molecule, the Ulcer index (HCl-ethanol ulcers) was 12.2, the Percent inhibition (Stress ulcers) was 69.1% and the Ulcer index (Stress ulcers) was 9.0. The “Gastric Volume” value [1] was 0.97 ml/100 g wt, the “Total Peptic Activity” value [1] was 70.9 mg as tyrosine/ 100 g wt and the “Total Acid Output” value [1] was 97.4 μ Eq/100 g wt.
